{
  "source": "BindingDB's records for doi:10.1021/np100918z",
  "about": "(National Cancer Institute-Frederick, 2011)",
  "data": [
    {"molecular_target": "T1, Programmed cell death protein 4 (Homo sapiens, UniProt Q53EL6)", "T1 sequence (Q53EL6 whole entry)": "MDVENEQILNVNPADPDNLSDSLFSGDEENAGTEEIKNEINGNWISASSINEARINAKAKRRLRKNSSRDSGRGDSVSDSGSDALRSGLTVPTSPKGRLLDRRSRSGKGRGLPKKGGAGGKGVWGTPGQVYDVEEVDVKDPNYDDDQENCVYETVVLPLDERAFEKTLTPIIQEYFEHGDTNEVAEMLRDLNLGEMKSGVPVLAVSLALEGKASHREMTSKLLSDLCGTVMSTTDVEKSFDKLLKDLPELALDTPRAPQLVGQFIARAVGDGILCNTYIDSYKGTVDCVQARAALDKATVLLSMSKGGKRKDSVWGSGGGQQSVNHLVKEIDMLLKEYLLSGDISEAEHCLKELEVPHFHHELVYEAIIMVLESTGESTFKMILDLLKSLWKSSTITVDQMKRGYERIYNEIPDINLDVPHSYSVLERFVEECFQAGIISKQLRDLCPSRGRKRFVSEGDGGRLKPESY", "assay": "Inhibition of TPA-induced degradation of Pdcd4 (amino acid 39-91) expressed in human HEK293 cells assessed as minimum compound concentration required for 50% recovery of Pdcd4-luciferase signal incubated for 8 hrs by luciferase reporter gene assay", "units": {"EC50": "µM"}, "values": [
      {"smiles": "CCCCCCCCCCCCCCC[C@@H](O)C[C@H](O)C[C@H](O)C[C@H](O)C[C@H](O)C[C@H]1CC=CC(=O)O1", "note": "[Cryptocaryol A]", "EC50": 4.9},
      {"smiles": "CCCCCCCCCCCCCCC[C@@H](O)C[C@H](O)C[C@H](O)C[C@H](O)C[C@@H]1OC(=O)C=C[C@@H]1O", "note": "[Cryptocaryol E]", "EC50": 1.8},
      {"smiles": "CCCCCCCCCCCCCCC[C@@H](O)C[C@H](O)C[C@H](O)C[C@H](O)C[C@H](O)C[C@@H]1OC(=O)C=C[C@@H]1O", "note": "[Cryptocaryol C]", "EC50": 1.6},
      {"smiles": "CO[C@H]1C[C@@H]2CC[C@@H](C)[C@@](O)(O2)C(=O)C(=O)N2CCCC[C@H]2C(=O)O[C@H]([C@H](C)C[C@@H]2CC[C@@H](O)[C@H](OC)C2)CC(=O)[C@H](C)/C=C(\\C)[C@@H](O)[C@@H](OC)C(=O)[C@H](C)C[C@H](C)/C=C/C=C/C=C/1C", "note": "[Rapamycin C-7, analog 4]", "EC50": 0.05},
      {"smiles": "CCCCCCCCCCCCCCC[C@H](C[C@H](O)C[C@H](O)C[C@H](O)C[C@H](O)C[C@H]1CC=CC(=O)O1)OC(C)=O", "note": "[Cryptocaryol B]", "EC50": 3},
      {"smiles": "CCCCCCCCCCCCCCC[C@H](C[C@H](O)C[C@H](O)C[C@H](O)C[C@H](O)C[C@@H]1OC(=O)C=C[C@@H]1O)OC(C)=O", "note": "[Cryptocaryol D]", "EC50": 1.5}
    ]}
  ]
}
